Consider eleven compounds from article PMC7617456, “Cryptosporidium lysyl-tRNA synthetase inhibitors define the interplay between solubility and permeability required to achieve efficacy” (Science translational medicine, 2024).

What is called solubility is the dissolved amount per volume that the medium holds. For orientation: EC50 means the concentration giving half of the maximal effect. As a reminder, the EC90 is the concentration at which the effect reaches the 90% level. What is called Papp is a coefficient for how fast a substance crosses the barrier. The low end stands for poor permeation, the high end for ready permeation.

Molecules are shown by their SMILES. ≈ marks a conversion by molar mass, not a printed value. Read-outs that look alike come from different tables or passages of the source.

Series [1] can be described thus: Aqueous (kinetic) solubility by UHPLC. Format: physicochemical. The conditions noted are these: PBS pH 7.4, UHPLC. Here is the method:
As previously described.(27) […]
samples were prepared by adding 5 µL stock to PBS pH 7.4 (195 µL). This solution was mixed […]
The solubility test samples were […]
vacuum ﬁ ltered (Millipore Multiscreen HTS ﬁ lter, 96-well format) to remove any undissolved […]
material. The ﬁ ltrate was analyzed for dissolved drug compound using a truncated UHPLC […]
methodology. A calibration solution was prepared for each test compound. The 10 mM stock […]
solution was diluted in DMSO to give a 500 µM solution. This was further diluted with 50:50 […]
acetonitrile:water to give a 50 µM solution. Aliquots (0.2, 2.0, and 5.0 µL) of this 50 µM solution were injected onto the UHPLC system, and the areas of the resultant peaks were […]
integrated to produce a calibration line. Aliquots of the test sample ﬁ ltrate (0.4 and 5.0 µL) […]
were injected onto the UHPLC system and the resultant test compound peak areas quantiﬁ ed […]
using the calibration line. […]

Series [2] is described as follows: Biopharmaceutical Classification System (BCS) categorization. Type of series: physicochemical. The conditions noted are these: cut-offs solubility 100 μM, permeability 30 nm/s; Table S1 prints 1-4 for I-IV. The text has this:
To investigate our key parameters, solubility and permeability, we used the Biopharmaceutical Classification System (BCS)([13]) to categorize our tool compounds in a methodical way. […] Restricting either of these properties is likely to have a rate-determining effect on absorption (Class II, purple; Class III, teal). Using the BCS to prioritize compounds for in vivo studies allowed us to systematically examine these individual property combinations and determine whether modulating solubility or permeability influenced compound efficacy. Our hypothesis was that slow absorption due to suboptimal solubility or permeability (i.e. Class II or Class III) would maximize compound concentration at the biophase following a single oral dose.
(A) Schematic of Biopharmaceutical Classification System (BCS). (B) Aqueous solubility and Parallel Artificial Membrane Permeability Assay (PAMPA) measurements of tool compounds from each BCS class. Data are means of two technical replicates. Solubility and permeability cut-offs were defined at 100 μM and 30 nm/s respectively. Raw data reported for all tool compounds in Table S1. (C) NOD SCID Gamma mice were infected with wild type C. parvum. Vehicle, positive control, or tool compound was administered via oral gavage starting day 7 post infection (PI) for 7 days (gray box indicates treatment period). Fecal samples were collected on days indicated by arrows. Fecal samples were collected from individual mice (4 animals per treatment group) and analyzed by qPCR to quantify parasite shedding (oocysts/g). (D) Log reduction in oocyst shedding measured on day 14 PI vs day 21 PI for tool compounds (colored by BCS class) dosed orally at either 30 or 50 mg/kg twice a day (BID) for 7 days in NOD SCID Gamma mice. […] Mean oocyst shedding was determined for each group of n=4 mice, for all compounds tested. Log reduction in oocyst shedding was calculated as log (mean oocysts on day 7) – log (mean oocysts on day 14 or 21).

A further series concerns C. parvum. Briefly: microbe, parasite or virus in culture. Type of series: cell-based, Cryptosporidium parvum.
Another series can be described thus: PAMPA permeability. Format: in vitro ADME. The conditions noted are these: for Papp at 5 h, 10 µM: PAMPA, pH 7.4, pH 7.4; for PAMPA Papp: pH 7.4. Here is the method:
Solubility test samples were prepared by adding 5 μL stock to PBS pH 7.4 (195 μL). […] […] vacuum […] (Millipore Multiscreen HTS fi lter, 96-well format) to remove any undissolved material. The […] analyzed for dissolved drug compound using a truncated UHPLC methodology. A calibration solution was prepared for each test compound. […] Aliquots of the test sample […] (0.4 and 5.0 μL) were injected onto the UHPLC system and the resultant test compound peak areas quantifi ed […] PAMPA per meability As previously described.(28) The permeability assay was performed using a 96-well precoated BD Gentest PAMPA plate (BD Biosciences). Each well was divided into two chambers: donor and acceptor, separated by a lipid-oil-lipid trilayer constructed in a porous fi lter. […] Stock solutions (5 mM) of the compound were prepared in DMSO. […] The compound dissolved in phosphate buffered saline was added to the donor side of the membrane, and phosphate-buffered saline without the compound was added to the acceptor side. The PAMPA plate was left at room temperature for 5 h then an aliquot (100 μL) was removed from both acceptor and donor compartments and mixed with acetonitrile (80 μL) containing an internal standard: donepezil at 50 ng/mL. The samples were centrifuged (10 min, 5 °C, 3270×g) to sediment lipids and sealed prior to UPLC-MS/MS analysis using a Quattro Premier XE (Waters Corp, USA). Recovery of the compound from donor and acceptor wells was calculated, and data were only accepted when recovery exceeded 70%.
(In general: The PAMPA barrier holds no transporters, so it reflects passive diffusion.)

Setting [3] is: 25 °C, aqueous buffer, kinetic from dmso stock.
[4] abbreviates: Cryptosporidium parvum, HCT-8, 48 h, read-out: C. parvum EC50, co-cultured with HCT-8 cells for 48 hrs.
Setting [5] is: Cryptosporidium parvum, HCT-8, read-out: C. parvum EC90.
Setting [6] is: calculated from the average EC50 and hill slope, read-out: C. parvum EC90.
[7] abbreviates: co-cultured with HCT-8 cells for 48 hrs, read-out: C. parvum EC50.

As for `Nc1cc(F)cc2c(=O)cc(C(=O)NCC3(O)CCCCC3)oc12` [DDD229], in series [1] (setting [3]), the concentration in solution (solubility at 24 h) came to 1.9 µM (≈ 0.635 µg/mL). Also, the “BCS Class” value in series [2] is on record as 4. Moreover, in the series on C. parvum (setting [4]), the EC50 was 30 nM. Moreover, in the series on C. parvum (setting [5]), the EC90 stood at 80 nM. The compound also showed a Papp at 5 h, 10 µM in the series “PAMPA permeability” of 1.9 ×10⁻⁶ cm/s.

Take `Nc1nc2c(c(C(F)F)n1)C(=O)N(C[C@@H]1CCC[C@H](C(F)(F)F)C1)C2` [DDD352]: the solubility at 24 h in series [1] stood at 32 µM (≈ 11.7 µg/mL). In addition, the “BCS Class” value in series [2] amounted to 2. The EC90 in the series on C. parvum (setting [6]) is 60 nM. The EC50 with C. parvum (setting [7]) was found to be 20 nM. The “PAMPA Papp” value in the series “PAMPA permeability” came to 19.3 ×10⁻⁶ cm/s.

On to `Cc1nc(N)nc2c1C(=O)N(C[C@@H]1CCC[C@H](C(F)(F)F)C1)C2` [DDD478], for which the solubility at 24 h in series [1] is on record as 57 µM (≈ 18.7 µg/mL). In addition, the “BCS Class” value in series [2] was 2. The EC90 in the series on C. parvum (setting [6]) was 40 nM. For the same compound, in the series with C. parvum (setting [7]), the EC50 was 20 nM. The “PAMPA Papp” value in “PAMPA permeability” stood at 13.8 ×10⁻⁶ cm/s.

Take `COc1cc(NS(=O)(=O)CCN2CCCC2)c2oc(C(=O)N[C@@H](C)C3CCCCC3)cc(=O)c2c1` [DDD582]: the solubility at 24 h in series [1] (setting [3]) was 225 µM (≈ 114 µg/mL). Moreover, in series [2], the “BCS Class” value came out at 3. Moreover, the EC50 in the series with C. parvum (setting [4]) was found to be 150 nM. Also, in the series with C. parvum (setting [5]), the EC90 turned out to be 370 nM. In the series “PAMPA permeability”, this compound displayed a Papp at 5 h, 10 µM of 1.6 ×10⁻⁶ cm/s.

In the case of `COc1ccc2oc(C(=O)NCC3(O)CCCCC3)cc(=O)c2c1` [DDD583], the solubility at 24 h in series [1] (setting [3]) came out at 33 µM (≈ 10.9 µg/mL). In addition, in series [2], the “BCS Class” value stood at 2. Besides, the EC50 with C. parvum (setting [4]) stood at 140 nM. Further, the EC90 in the series on C. parvum (setting [5]) was found to be 330 nM. For the same compound, the Papp at 5 h, 10 µM in “PAMPA permeability” was found to be 11.5 ×10⁻⁶ cm/s.

Compound `O=C(NCC1CCCCC1)c1cc(=O)c2cc(F)c(F)c(O)c2o1` [DDD690] gave a solubility at 24 h in series [1] (setting [3]) of 226 µM (≈ 76.2 µg/mL). In addition, the “BCS Class” value in series [2] was 1. The EC50 in the series on C. parvum (setting [4]) was 190 nM. Also, the EC90 with C. parvum (setting [5]) is 370 nM. The compound further returned a Papp at 5 h, 10 µM in the series “PAMPA permeability” of 3.2 ×10⁻⁶ cm/s.

Take `O=C(NCC1CCCCO1)c1cc(=O)c2ccc(F)c(O)c2o1` (stereo not shown) [DDD695]: the solubility at 24 h in series [1] (setting [3]) was 236 µM (≈ 75.8 µg/mL). In addition, in series [2], the “BCS Class” value turned out to be 3. Also, in the series with C. parvum (setting [4]), the EC50 turned out to be 80 nM. Besides, the EC90 in the series on C. parvum (setting [5]) turned out to be 180 nM. Moreover, the Papp at 5 h, 10 µM in “PAMPA permeability” stood at 1.1 ×10⁻⁶ cm/s.

As for `O=C(NCC1CCCCC1)c1cc(=O)c2ccc(F)c(O)c2o1` [DDD714], in series [1] (setting [3]), the solubility at 24 h is 377 µM (≈ 120 µg/mL). For the same compound, in series [2], the “BCS Class” value worked out at 1. In the series on C. parvum (setting [4]), the EC50 was 30 nM. For the same compound, the EC90 in the series with C. parvum (setting [5]) stood at 50 nM. The compound further yielded a Papp at 5 h, 10 µM in “PAMPA permeability” of 4.3 ×10⁻⁶ cm/s.

In turn, `O=C(NCC1(O)CCCCC1)c1cc(=O)c2ccc(F)c(O)c2o1` [DDD844] showed a solubility at 24 h in series [1] (setting [3]) of 63 µM (≈ 21.1 µg/mL). Besides, the “BCS Class” value in series [2] stood at 4. Further, in the series on C. parvum (setting [4]), the EC50 came out at 170 nM. Also, the EC90 in the series on C. parvum (setting [5]) was 460 nM. In “PAMPA permeability”, this compound showed a Papp at 5 h, 10 µM of 0.17 ×10⁻⁶ cm/s.

In turn, `Nc1nc2c(c(C(F)(F)F)n1)C(=O)N(CC1CCCC3(CC3)C1)C2` (stereo not shown) [DDD909] showed a solubility at 24 h in series [1] of 14 µM (≈ 4.76 µg/mL). Further, the “BCS Class” value in series [2] was 2. The EC90 in the series on C. parvum (setting [6]) is 130 nM. The EC50 in the series with C. parvum (setting [7]) came out at 70 nM. In the series “PAMPA permeability”, the “PAMPA Papp” value came out at 17.4 ×10⁻⁶ cm/s.

For `O=C(NCC1(F)CCCCC1)c1cc(=O)c2ccc(F)c(O)c2o1` [DDD993], the concentration in solution in series [1] (setting [3]) (solubility at 24 h) was 234 µM (≈ 78.9 µg/mL). Besides, the “BCS Class” value in series [2] is recorded as 1. In addition, the EC50 in the series on C. parvum (setting [4]) is 100 nM. In the series on C. parvum (setting [5]), the EC90 was determined as 150 nM. The same compound came in with a Papp at 5 h, 10 µM in the series “PAMPA permeability” of 6.3 ×10⁻⁶ cm/s.
